From patent publication US7947664B2, “Angiotensin II receptor antagonists” (Merck Sharp & Dohme Corp., priority 2008, dated 2011)

Test system: isolated rabbit thoracic aorta preparations
Assay: Vessel relaxation in isolated rabbit thoracic aorta preparations
Conditions: Oryctolagus cuniculus; in vitro, rabbit aortic rings precontracted with noradrenaline (1 μM), functional endothelium
Experimental: The ability of the compounds to induce vasorelaxation was tested in vitro in isolated rabbit thoracic aorta preparations (Wanstall J. C. et al., Br. J. Pharmacol., 134:463-472, 2001). Male New Zealand rabbits were anaesthetized with thiopental-Na (50 mg/kg, iv), sacrificed by exsanguinations and then the thorax was opened and the aorta dissected. Aortic ring preparations (4 mm in length) were set up in physiological salt solution (PSS) at 37° C. in small organ chambers (5 ml). The composition of PSS was (mM): NaCl 130, NaHCO3 14.9, KH2PO4 1.2, MgSO4 1.2, HEPES 10, CaCl2, ascorbic acid […] and glucose 1.1 (95% O2/5% CO2; pH 7.4). Each ring was mounted under 2 g passive tension. Isometric tension was recorded with a Grass transducer (Grass FT03) attached to a BIOPAC MP150 System. Preparations were allowed to equilibrate for 1 h, and then contracted submaximally with noradrenaline (NA, 1 μM) and, when the contraction was stable, acetylcholine (ACh, 10 μM) was added. A relaxant response to ACh indicated the presence of a functional endothelium. […] When a stable precontraction was reached, a cumulative concentration-response curve to either of the vasorelaxant agents was obtained in the presence of a functional endothelium. Each arterial ring was exposed to only one combination of inhibitor and vasorelaxant. […]
Examples 32 and 48 were evaluated for vessel relaxation.

| EC50 [µM] | SMILES |
| --- | --- |
| 46 | CCOc1nc2cccc(C(=O)OC(C)OC(=O)OCCC(C)CCO/N=[N+](\[O-])N(C)C(C)(C)C)c2n1Cc1ccc(-c2ccccc2-c2nnn[nH]2)cc1 (centres unmarked) [Example 32, O^2-(5-{[(1-{[(2-ethoxy-1-{[2′-(1H-tetrazol-5-yl)biphenyl-4-yl]methyl}-1H-benzimidazol-7-yl)carbonyl]oxy}ethoxy)carbonyl]oxy}-3-methylpentyl) 1-(N-tert-butylmethylamino)diazen-1-ium-1,2-diolate] |
| > 100 | CCOc1nc2cccc(C(=O)OC(C)OC(=O)O[C@H](C)CCCCO/N=[N+](\[O-])N(C)C(C)(C)C)c2n1Cc1ccc(-c2ccccc2-c2nnn[nH]2)cc1 (stereo partly drawn) [Example 48, O^2-[(5R)-5-{[(1-{[(2-ethoxy-1-{[2′-(1H-tetrazol-5-yl)biphenyl-4-yl]methyl}-1H-benzimidazol-7-yl)carbonyl]oxy}ethoxy)carbonyl]oxy}hexyl] 1-(N-tert-butylmethylamino)diazen-1-ium-1,2-diolate] |
